{"source": "patent US10501440B2", "about": "“Heteroarylcarboxamide derivatives as plasma kallikrein inhibitors” (Boehringer Ingelheim International GmbH, priority 2017, dated 2019)", "assay_type_in_all_cases": "biochemical", "key": {"[1]": {"molecular_target": "T1, KLKB1 (Homo sapiens (Human), UniProt P03952)", "T1 sequence (P03952 391-638 limits assumed)": "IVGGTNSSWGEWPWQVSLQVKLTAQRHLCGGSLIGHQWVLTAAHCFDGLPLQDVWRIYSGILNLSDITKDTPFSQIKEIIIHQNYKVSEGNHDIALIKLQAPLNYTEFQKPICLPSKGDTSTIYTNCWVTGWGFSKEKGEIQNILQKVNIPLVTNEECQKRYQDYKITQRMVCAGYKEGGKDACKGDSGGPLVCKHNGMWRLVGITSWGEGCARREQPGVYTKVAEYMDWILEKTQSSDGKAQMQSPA", "T1 sequence (P03952 20-390 partner limits assumed)": "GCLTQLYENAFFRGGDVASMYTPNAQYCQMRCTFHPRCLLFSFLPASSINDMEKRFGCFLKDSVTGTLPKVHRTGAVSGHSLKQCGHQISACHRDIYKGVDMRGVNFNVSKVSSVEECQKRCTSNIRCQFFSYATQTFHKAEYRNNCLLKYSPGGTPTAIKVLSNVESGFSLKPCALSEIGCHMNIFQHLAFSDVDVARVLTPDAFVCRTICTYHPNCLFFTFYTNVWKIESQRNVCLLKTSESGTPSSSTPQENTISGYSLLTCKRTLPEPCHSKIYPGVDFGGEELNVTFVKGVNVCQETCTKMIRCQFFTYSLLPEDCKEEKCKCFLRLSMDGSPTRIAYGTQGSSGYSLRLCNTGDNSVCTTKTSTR", "assay": "Inhibition of KLKB1 in kaolin activated human PPP", "protocol": "Evaluation of the Inhibition of KLKB1 in Kaolin Activated Human PPP\nPlatelet poor plasma (PPP) obtained from human wholeblood, anticoagulated with Na-Citrat, was incubated with various concentrations of the test compound together with either 25, 75, 250, or 750 μg/mL kaolin in assay buffer for 20 min at 37° C. such that for each kaolin dose used a concentration response was obtained for the test compound.\n(§1) The number of the compound corresponds to the number of the Example in the experimental section."}, "[2]": {"molecular_target": "T1, KLKB1", "assay": "Inhibition of human KLKB1 in dextran sulfate activated human PPP", "protocol": "Evaluation of the Inhibition of Human KLKB1 in Dextran Sulfate Activated Human PPP\nPlatelet poor plasma (PPP) obtained from human wholeblood, anticoagulated with EDTA, was activated with 12.5 μg/mL dextransulfate for 7 min on ice. The activated PPP was incubated with various concentrations of the test compound in assay buffer. Afterwards the mixture was incubated at 24° C. with 0.25 mM fluorogenic substrate H-Pro-Phe-Arg-AMC (11295 from Bachem) and measurements were performed in a kinetic interval every 2nd minute for 16 min using a Spectramax M5 (Molecular Devices) with the following settings of the wavelength excitation of 350 nm and wavelength emission of 450 nm.\nas §1"}, "[3]": {"molecular_target": "T1, KLKB1", "assay": "Inhibition of KLKB1 using an endpoint assay (fluorogenic substrate H-Pro-Phe-Arg-AMC)", "protocol": "(§2) The ability of compounds of formula (I) to inhibit plasma kallikrein (KLKB1), Factor XIIa (FXIIa), Factor XIa (FXIa), Factor Xa (FXa), Factor IIa (alpha-thrombin; FIIa), plasmin, trypsin, tissue kallikrein 1 (KLK1), Factor Vila (FVIIa), or FVIIa complexed with Tissue Factor, phospholipids and CaCl2 (FVIIa/TF/PL/CaCl2) was determined using the following biochemical assays in assay buffer (100 mM Tris, 150 mM NaCL, adjusted to a pH of 7.8 with HCl, and containing 0.1% (w/v) BSA and 0.05% (v/v) Tween20) in the presence of 1% (v/v) DMSO:\nEvaluation of the Inhibition of KLKB1 Using an Endpoint Assay\nHuman KLKB1 (0.01 U/mL; Enzyme Research Laboratories) or rat KLKB1 (0.625 nM; produced in-house) was incubated for 1 h at room temperature with 0.10 μM fluorogenic substrate H-Pro-Phe-Arg-AMC (11295 from Bachem) and various concentrations of the test compound in assay buffer. Subsequently, PPACK 11 (Calbiochem) was added as a stop solution to achieve a final concentration of 1 μM and fluorescence was measured using an Envision Reader (PerkinElmer) with the wavelength excitation setting of 355 nm and the wavelength emission setting of 460 nm.\nas §1"}, "[4]": {"molecular_target": "T1, KLKB1", "assay": "Inhibition of KLKB1 (Ki), kinetic assay", "settings": "24° C., 0.25 mM H-Pro-Phe-Arg-AMC; IC50 corrected for KM of substrate", "protocol": "as §2\nEvaluation of the Inhibition of KLKB1 (Ki)\nMeasurements were performed in a kinetic interval every 2nd minute for 16 min using a Spectramax M5 (Molecular Devices) with the following settings of the wavelength excitation of 350 nm and wavelength emission of 450 nm.\nas §1\nCalculation of pIC50 and Pki Values\nThe pIC50 values were then fitted using a four-parametric fitting procedure using GraphPad Prism (version 6; GraphPad Software, Inc.).\nWhere the IC50 is in molar and the KM value in mM."}}}
{"smiles": "Cc1nc(N2CC3C(C2)C3(F)F)ccc1Cn1cc(C(=O)N[C@@H]2CCc3c2ccnc3N)cn1", "note": "(stereo partly drawn) [Example 9, N-[(5R)-1-Amino-5H,6H,7H-cyclopenta[c]pyridin-5-yl]-1-[(6-{6,6-difluoro-3-azabicyclo[3.1.0]hexan-3-yl}-2-methylpyridin-3-yl)methyl]-1H-pyrazole-4-carboxamide]", "values": [{"measurement": "IC90", "setting": "[1]", "value": 0.0895, "unit": "µM"}, {"measurement": "IC50", "setting": "[1]; human platelet poor plasma (Na-Citrat), 25, 75, 250 or 750 μg/mL kaolin, global fit, read-out: IC50", "value": 0.014, "unit": "µM"}, {"measurement": "IC50", "setting": "[2]; human platelet poor plasma (EDTA) activated with 12.5 μg/mL dextransulfate, 24° C., read-out: IC50", "value": 0.0181, "unit": "µM"}, {"measurement": "IC50", "setting": "[3]; endpoint assay, 1 h at room temperature, 0.10 μM H-Pro-Phe-Arg-AMC, read-out: IC50", "value": 0.0006, "unit": "µM"}, {"measurement": "Ki", "setting": "[4]", "value": 0.0004, "unit": "µM"}]}
{"smiles": "Cc1nc(N2CC3CC3C2)ccc1Cn1cc(C(=O)N[C@@H]2CCc3c2ccnc3N)cn1", "note": "(stereo partly drawn) [Example 1, N-[(5R)-1-Amino-5H,6H,7H-cyclopenta[c]pyridin-5-yl]-1-[(6-{3-azabicyclo[3.1.0]hexan-3-yl}-2-methylpyridin-3-yl)methyl]-1H-pyrazole-4-carboxamide]", "values": [{"measurement": "IC50", "setting": "[1]", "value": 0.019, "unit": "µM"}, {"measurement": "IC90", "setting": "[1]", "value": 0.199, "unit": "µM"}, {"measurement": "IC50", "setting": "[2]", "value": 0.0541, "unit": "µM"}, {"measurement": "IC50", "setting": "[3]", "value": 0.0005, "unit": "µM"}, {"measurement": "Ki", "setting": "[4]", "value": 0.0003, "unit": "µM"}]}
